Experimental data published in patent US8048866B2, “Preventive and/or therapeutic agent for calcipenia” (Nippon Beet Sugar MFG., Co., Ltd., priority 2004, dated 2011).
One block for each molecule: values may come before it.

Legend:
rumen microorganisms = test: Degradability of DFA III and DFA IV in the rumen (incubation with rumen liquid inoculum); assay type: in vitro ADME, Holstein steer and cow; conditions: 400 mg/dl in culture solution, 39° C., 0 to 24 hours
Description: In ruminants, for DFA III and DFA IV to accelerate calcium absorption, they have to reach intestines by avoiding degradation thereof in the rumen with microorganisms. Accordingly, degradability of DFA III and DFA IV in the rumen was examined.
A rumen liquid was collected from each of a rumen cannula-fitted Holstein steer to which 4 kg of a concentrate was supplied in consideration of controlling nutrition of a dry cow and which was caused to freely take hay and a cow in which a milk yield was 30 kg and a rate of a concentrate in a supplied feed was 55%. The liquid was filtered through a four-fold gauze to form an inoculum.
As a buffer, a 0.25 M phosphate buffer (KH2PO4 6.8045 g+Na2HPO4.12H2O 26.8605 g/500 ml, pH 7.0) was used, and 1 g of DFA III or DFA IV per 100 ml of this buffer was added.
30 ml of the inoculum and 20 ml of the buffer were added to a 200-ml conical flask. […] In 0, 1, 2, 4, 8, 12 and 24 hours of the culturing, the culture solution was collected from the flask, and analyzed.
The culture solution in the flask was stirred. After 20 ml of the culture solution was collected, 0.1 ml of sulfosalicylic acid (20% solution was added for deproteinization. After centrifugation by 8,000 rotations for 10 minutes, the solution was filtered with a filter paper of 0.45 μm, and DFA III and DFA IV were analyzed by liquid chromatography. […]

Holstein calving cows [1] = test: Influence of DFA III and DFA IV on calcium concentration in blood in calving of cows (OCPC method); assay type: in vivo, cow; conditions: for Increase of calcium concentration in blood from immediately after calving: in 6 hours, 100 g orally
Method: The influence of DFA III and DFA IV on the calcium concentration in blood in calving of cows was examined.
(§1) As test cows, 15 Holstein calving cows with two or more calvings were used, and divided into three groups each consisting of 5 cows. Immediately after calving, the blood was sampled from the tail root. 300 ml of warm water was orally administered to the control group. 100 g of DFA III and 100 g of DFA IV each dissolved in 250 ml of warm water were orally administered to the DFA III group and the DFA IV group respectively. The blood was sampled from the tail root after 6 hours and 60 hours from the blood sampling immediately after calving. The degree of the udder edema was also confirmed by palpation.
Regarding the feeds supplied after calving, the cows were caused to freely take 20 kg/day of TMR containing a grass silage, a corn silage and a concentrate (hereinafter referred to as a mixed feed: forage rate 47.8%), 4 kg of a concentrate and hay. Conditions of calculating the requirement are as follow: day after calving—3, 2 calvings, body weight—612 kg, milk yield—20 kg, milk fat rate—4.0%, and milk protein rate—3.2%. NEl indicates a net energy of lactation, and efNDF indicates an effective neutral detergent insoluble fiber.
(§2) The blood was centrifuged at 3,000 rpm for 10 minutes, and the serum portion was stored at −30° C. until analysis. Calcium was analyzed by the OCPC method. The degree of udder was examined by palpation. A heavy degree was defined as 4, a medium degree as 3, a light degree as 2 and a normal degree as 1 respectively.

Holstein cows = test: Effect of supply of DFA III and DFA IV on calcium metabolism, lactation and urine excretion amount of cows; assay type: in vivo, cow; conditions: supplied feeds and 100 g of DFA; for Excretion amount of calcium in urine / Milk fat rate / Milk protein rate / Milk yield: main period of 5 days
Description: The effect of supply of DFA III and DFA IV on calcium metabolism, lactation and a urine excretion amount of cows was examined.
Nine Holstein cows (2 to 4 calvings, 90 to 120 days after calving, average body weight 642 kg, average milk yield 36 kg) were divided into three groups, and subjected to a test by 3×3 Latin squares with one period of 15 days (preliminary period of 10 days and main period of 5 days).
Regarding supplied feeds for a day, a grass silage, a cone silage and a beat pulp were used in fixed amounts of 3, 4 and 2 kg in terms of a dry weight respectively, and an amount of a concentrate (crude protein content 18% TDN content 74%) was ⅓ the milk yield. Further, a mineral agent and a vitamin agent were not supplied, and an insufficient feed for each cow was supplemented by supplying hay. These supplied feeds have the same contents in all cows, and they were caused to freely drink water.
The foregoing supply only was applied to a control group Supplied feeds and 100 g of DFA III were applied to a DFA III group, and supplied feeds and 100 g of DFA IV were applied to a DFA IV group.
The cows were accommodated in a metabolism test laboratory, and milking was conducted twice at 5 o'clock and 17 o'clock. The milk yield was measured and milk composition were analyzed for five days as the main period. The total amount of feces and urine was recovered for five days as the main period, and the fixed amounts thereof were mixed and subjected to analysis.
As is apparent from the results, no great difference was found among the groups in the dry matter intake and the calcium intake. The milk yield was increased in the DFA III and DFA IV groups by approximately 1 kg in comparison to the control group. No difference was found either among the groups in the milk fat rate and the milk protein rate. […] In the table, TDN indicates a total amount of a digestible nutrient.

Holstein calving cows [2] = test: Degree of udder edema by palpation after oral administration of DFA III and DFA IV; assay type: in vivo, cow; conditions: time 0, before administration; heavy 4, medium 3, light 2, normal 1
Method: as §1, §2

Holstein calving cows [3] = test: Effect of DFA III and calcium and vitamin D on calcium concentration in blood at the time of calving of cows; assay type: in vivo, cow
Method: The effect of DFA III and calcium and vitamin D on the calcium concentration in blood at the time of calving of cows was examined.
As test cows, 15 Holstein calving cows with 2 or more calvings were used, and divided into three groups each consisting of 5 cows. Immediately after calving, the blood was sampled from the tall root. 100 g of DFA III dissolved in 250 ml of warm water was orally administered to the DFA III group. DFA III and calcium carbonate in amounts of 100 g each which were dissolved in 200 ml of warm water were orally administered to the DFA III+Ca group. DFA III and calcium carbonate in amounts of 100 a each and 10,000 IU of vitamin D which were dissolved in 200 ml of warm water were orally administered to the DFA III+Ca+VD group. The blood was sampled from the tail root after 6, 24 and 70 hours from the blood sampling immediately after calving.
The supply of the feeds and the analyses of the calcium concentration in blood were conducted in the same manner as in Example 3.

[4] = test system: cows with 2 or more calvings; test: Influence of DFA III supply at a dry period on calcium concentration in blood of cows after calving; assay type: in vivo, cow
Method: The influence of the DFA III supply at a dry period on the calcium concentration in blood of cows after calving was tested in vivo using actual cows.
It has been so far considered that DFA III is administered to cows after caving which is effective for improving the calcium concentration in blood. On the other hand, the calcium concentration in blood is already decreased immediately after calving. As the decree of decrease is greater, vitality and appetite are weak and tend to be slowly recovered. Accordingly, DFA III was supplied at a dry period, and the influence of DFA III on the calcium concentration in blood immediately after calving was examined.
DFA III supply; DFA III (50 g/day) was supplied at a dry period from 3 weeks before an expected date of calving through calving.
Without DFA III supply; DFA III was not supplied before calving.
90 g of DFA III was, each time, supplied to both of the DFA III supply group and the group without DFA supply 0 hour and 6 hours after calving. At a dry period, 4 kg/day of a feed obtained by adding 12,000 IU of vitamin D to 4 kg of a feed was supplied to both the areas.
Cows with 2 or more calvings were used.
As DFA III supply cows, 10 cows which experienced calving after Apr. 30, 2004 were subjected to a test. As cows without DFA III supply, 38 cows which experienced calving from Jul. 14, 2002 through Apr. 18, 2004 and to which DFA III was not supplied at a dry period were used. Since the test started on Jul. 14, 2002, the test cows include 15 cows which experienced calving twice (8 DFA III supply cows and 7 cows without DFA III supply) during this period.
In dry cows, milking was stopped 2 months before an expected date of calving. Then, a concentrate (crude protein content 18%, TDN 72%, Ca 0.9% P 0.5%) was supplied in an amount of 2 kg/day until 3 weeks before an expected date of calving. A concentrate (crude protein content 20%, TDN 75%, Ca 0.2%, P 0.5%) was supplied in an amount of 4 kg/day from 3 weeks before an expected date of calving through calving. As another feed, the cows were caused to freely take hay (crude protein content from 6 to 8%, TDN from 45 to 55%, Ca from 0.2 to 0.3%, P 0.2%) during the entire dry period. A mixture obtained by adding 50 g of DFA III to 4 kg of the concentrate given 3 weeks before an expected date of calving was supplied to the DFA III supply cows. As the feeds supplied after calving, the cows were caused to freely take 20 kg/day of TMR containing a grass silage a corn silage and a concentrate (crude feed rate 47.8%), 4 kg of a concentrate (crude protein content 18%, TDN 72%, Ca 0.9%, P 0.5%) and hay.
In all cows, the blood was sampled from the tail root immediately after calving. Further, the blood sampling was performed from the same tail root after 6 hours, 24 hours and 72 hours from the blood sampling immediately after confinement (0 hour). In 0 hour and 6 hours for blood sampling, 90 g of DFA III, 100 g of calcium carbonate and 10,000 IU of vitamin D dissolved in warm water were orally administered each time.
The blood was centrifuged at 3,000 rpm for 10 minutes, and the serum portion was stored at −30° C. until analysis. The calcium concentration was measured by the OCPC method.

mice = test: Acute toxicity test for 10 days using mice; assay type: in vivo; conditions: oral administration, 1,000 mg/kg
Description: The dose of DFA III is not particularly limited to the foregoing range. When it is ingested over a long period of time for preservation of the health or for maintenance of the health, the dose may be lower than the foregoing range.

[5] = 6 hours after first blood sampling, 100 g orally immediately after calving
[6] = time 0: blood sampling immediately after calving, before oral administration of 100 g

Degradation in rumen culture solution (rumen microorganisms; any of the inoculums): not degraded
Structure (SMILES): OCC12OCC3OC(CO)(OCC(O1)C(O)C2O)C(O)C3O [DFA IV, di-D-fructfuranose-2,6:6.2′ dianhydride]
Amount recovered in each incubation time (rumen microorganisms; liquid chromatography): approximately the total amounts thereof were recovered | Calcium concentration in blood (Holstein calving cows [1]; [5]): 8.0 mg/dL | Increase of calcium concentration in blood from immediately after calving (Holstein calving cows [1]): approximately 1 mg/dl | Calcium concentration in blood (Holstein calving cows [1]; [6]): 7.1 mg/dL | Increase of milk yield in comparison to the control group (Holstein cows): approximately 1 kg | Excretion amount of calcium in urine (Holstein cows): 4.0 g/day | Milk fat rate (Holstein cows): 3.92% | Milk protein rate (Holstein cows): 3.11% | Milk yield (Holstein cows): 35.2 kg/day | Degree of udder edema (Holstein calving cows [2]): 3.1

Structure (SMILES): OC[C@H]1O[C@@]2(CO[C@]3(CO)O[C@H](CO)[C@@H](O)[C@@H]3O2)[C@@H](O)[C@@H]1O [DFA III, di-D-fructfuranose-1,2;2,3′ dianhydride]
Calcium concentration in blood (Holstein calving cows [1]; [5]): 8.3 mg/dL | Calcium concentration in blood (Holstein calving cows [1]; 60 hours after first blood sampling, 100 g orally immediately after calving): 8.0 mg/dL | Increase of calcium concentration in blood from immediately after calving (Holstein calving cows [1]): approximately 1 mg/dl | Calcium concentration in blood (Holstein calving cows [1]; [6]): 7.3 mg/dL | Calcium concentration in blood (Holstein calving cows [3]; 6 hours after first blood sampling, oral administration immediately after calving): 7.9 mg/dL | Calcium concentration in blood (Holstein calving cows [3]; 70 hours after first blood sampling, oral administration immediately after calving): 8.5 mg/dL | Increase of calcium concentration in blood in comparison to that immediately after calving (Holstein calving cows [3]; in 6 hours): 1.2 mg/dL | Calcium concentration in blood (Holstein calving cows [3]; time 0: immediately after calving, before oral administration): 6.7 mg/dL | Increase of milk yield in comparison to the control group (Holstein cows): approximately 1 kg | Excretion amount of calcium in urine (Holstein cows): 4.2 g/day | Milk fat rate (Holstein cows): 3.86% | Milk protein rate (Holstein cows): 3.15% | Milk yield (Holstein cows): 35.6 kg/day | Degree of udder edema (Holstein calving cows [2]): 3.3 | Calcium concentration in blood immediately after calving according to the parity ([4]; 10 DFA III supply cows, DFA III at dry period): not decreased by increasing the parity | Change in calcium concentration in blood after calving (0 to 72 hours) ([4]; Yes-Present calving, 8 cows, DFA III at dry period): shifted at a higher level than in the previous calving | Time for calcium concentration in blood to reach the normal value (9 to 11 mg/dl) ([4]; after calving, DFA III supplied at a dry period, 90 g DFA III, calcium carbonate and vitamin D at 0 and 6 hours): approximately 6 hours | Increase of calcium concentration in blood immediately after calving in comparison to the previous calving ([4]; present calving with DFA III 50 g/day at dry period vs previous calving without): 1.0 mg/dL | Calcium concentration in blood immediately after calving (average) ([4]; present calving, DFA III 50 g/day at a dry period from 3 weeks before expected date of calving): 8.1 mg/dL | Calcium concentration in blood immediately after calving, individual cows ([4]; present calving, DFA III supply at dry period): ≥ 7 mg/dL | Death in acute toxicity test (mice): no death example was observed
